Results on 22 compounds are retold here after paper PMC6982966 (Molecules, 2019).

Structures are written as SMILES. Where two headings read alike, the source gives them in different places.

Data set [1] concerns the target T1, human CK2 holoenzyme (Homo sapiens, UniProt P68400).
T1 construct: made in house; host or cells: Escherichia coli
Conditions: recombinant human CK2, compounds published before, cited from earlier work; for Tested pIC50: pIC50 = -logIC50.

In data set [2] the target is T1, human CK2 holoenzyme. Kind of data set: biochemical. The note with it: newly synthesized indeno[1,2-b]indoles.
A further data set relates to MCF-7 cells. Kind of data set: MTT cell viability assay. Type of data set: cell-based, human. Conditions: for reduction of cell viability: after 24 h and 48 h. Here is the method:
The effect of the four naphtho[2,3-b]furan-4,9-dione derivatives on cell viability was evaluated using an MTT assay with MCF-7 cells (human breast adenocarcinoma cell line). […]. It is important to note that some compounds with a naphtho[2,3-b]furan-4,9-dione backbone are known to have anticancer effects and are highly cytotoxic, and other natural naphtho[2,3-b]furan-4,9-dione derivatives, which are found in the lapacho (Tabebuia) tree, are known to have different biological activities, such as antibacterial, antifungal, anti-inflammatory, and antitumor activities.
Bars represent the mean values of three measurements (n = 3). Error bars illustrate the corresponding standard deviations (± SD).
The effect of CK2 inhibitors on the viability of MCF-7 cells was evaluated using an MTT assay. MCF-7 breast cancer cells (kindly provided by the Department of Clinical Radiology of the University Hospital Muenster, Germany) were cultured in RPMI 1640 medium containing GlutaMax (Life Technologies, Darmstadt, Germany) and 10% fetal calf serum. The MTT assay was performed in 96-well plates. Cells were seeded at a density of 1 × 10^5 cells per well, then incubated […] at 37 °C in a humidified atmosphere (5% CO2). After overnight incubation, the seeding medium was removed and replaced with fresh medium containing the inhibitor at 0.01, 0.1, 1, and 10 μM. DMSO at a final concentration of 1% served as a control. Afterward, the MTT reagent (Sigma Aldrich, Darmstadt, Germany) was added at a final concentration of 0.5 mg/mL. After incubation for 2 h at 37 °C, the medium was discarded and 200 µL DMSO was added for the solubilization of the formazan. After mixing, the absorption was determined at 570 nm with a reference wavelength of 630 nm using a microplate reader. CK2 inhibitors were tested in triplicate, and the experiments were repeated three times.
On the technique in general: Tetrazolium dyes change colour on reduction, which living cells bring about.

[3] abbreviates: Tested pIC50, recombinant human CK2, pIC50 = -logIC50.
[4] abbreviates: Tested IC50, recombinant human CK2.
Setting [5] is: recombinant human CK2, read-out: Tested IC50.
The mark [6] stands for this setting: recombinant human CK2, pIC50 = -logIC50, read-out: Tested pIC50 (converted).

T1 sequence (P68400 whole entry): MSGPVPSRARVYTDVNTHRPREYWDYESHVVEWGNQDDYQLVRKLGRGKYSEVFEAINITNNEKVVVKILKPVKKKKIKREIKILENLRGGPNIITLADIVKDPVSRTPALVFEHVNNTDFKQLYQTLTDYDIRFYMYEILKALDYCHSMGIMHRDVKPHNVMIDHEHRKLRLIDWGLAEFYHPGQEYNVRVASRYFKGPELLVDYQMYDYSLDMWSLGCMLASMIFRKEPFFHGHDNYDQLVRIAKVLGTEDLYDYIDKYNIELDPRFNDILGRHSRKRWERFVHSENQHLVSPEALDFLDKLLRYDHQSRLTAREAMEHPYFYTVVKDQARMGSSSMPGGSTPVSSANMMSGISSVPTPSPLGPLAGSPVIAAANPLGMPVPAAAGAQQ
T1 sequence (P67870 whole entry partner): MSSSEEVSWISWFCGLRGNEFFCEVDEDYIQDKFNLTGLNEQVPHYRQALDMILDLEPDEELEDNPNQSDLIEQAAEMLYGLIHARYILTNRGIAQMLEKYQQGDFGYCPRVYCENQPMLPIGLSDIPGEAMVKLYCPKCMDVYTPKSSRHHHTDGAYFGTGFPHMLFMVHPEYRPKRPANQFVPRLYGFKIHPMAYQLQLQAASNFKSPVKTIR

Turning to `COc1ccccc1CCn1c2c(c3c1-c1ccccc1C3=O)C(=O)CCC2` [4e], the IC50 on human CK2 holoenzyme [1] (read-out: Tested IC50) was 1.4 µM. Besides, the “Tested pIC50” value on human CK2 holoenzyme [1] is 5.8540.
A word on the melting point: it is the temperature of the solid-liquid transition. As for `Cc1cccc2c1C(=O)c1c3c(n(C(C)C)c1-2)CCCC3=O` [4h, 5-isopropyl-1-methyl-5,6,7,8-tetrahydroindeno[1,2-b]indole-9,10-dione], the melting point was determined as 235 °C. Also, the IC50 on human CK2 holoenzyme [2] (setting [3]) was 0.11 µM.
Regarding `CC(C)n1c2c(c3c1-c1cccc(C(F)(F)F)c1C3=O)C(=O)CCC2` [4i], on human CK2 holoenzyme [2] (setting [3]), the IC50 was determined as 0.21 µM.
On to `CC(C)n1c2c(c3c1-c1cccc(Br)c1C3=O)C(=O)CCC2` [4j], for which the IC50 on human CK2 holoenzyme [2] (setting [3]) came to 0.14 µM.
Regarding `COC(=O)COc1ccc2c(c1)-c1c(c3c(n1C(C)C)CCCC3=O)C2=O` [4p], the IC50 at human CK2 holoenzyme [2] (setting [4]) and at human CK2 holoenzyme [2] (setting [3]) was 1.52 µM throughout.
For the compound `CC(=O)Oc1ccc2c(c1)-c1c(c3c(n1C(C)C)CCCC3=O)C2=O` [4q], the IC50 on human CK2 holoenzyme [2] (setting [4]) and on human CK2 holoenzyme [2] (setting [3]) was 3.21 µM each time.
As to `COC(=O)CCCOc1ccc2c(c1)-c1c(c3c(n1C(C)C)CCCC3=O)C2=O` [4r], on human CK2 holoenzyme [2] (setting [3]), the IC50 came to 0.52 µM.
For the compound `CC(C)n1c2c(c3c1-c1cc(OCCCC(=O)O)ccc1C3=O)C(=O)CCC2` [4s], the IC50 at human CK2 holoenzyme [2] (setting [3]) was 1.51 µM.
With `CC(C)n1c2c(c3c1-c1cc(Br)cc(Br)c1C3=O)C(=O)CCC2` [4w, 1,3-dibromo-5-isopropyl-5,6,7,8-tetrahydroindeno[1,2-b]indole-9,10-dione], the melting point amounted to 276 °C. The IC50 on human CK2 holoenzyme [2] (setting [3]) turned out to be 0.11 µM.
Consider `CC(C)C1CC(=O)c2c3c(n(C(C)C)c2C1)-c1ccccc1C3=O` (centres unmarked) [4y], for which the “Tested pIC50” value at human CK2 holoenzyme [1] is listed as 6.2150.
Regarding `O=C1c2ccccc2-c2[nH]c3cccc(O)c3c21` [5a], the IC50 at human CK2 holoenzyme [2] (setting [5]) and at human CK2 holoenzyme [2] (setting [6]) was 2.22 µM each time.
`O=c1ccc(=O)c2c1[nH]c1c3ccccc3c(=O)c12` [6a]: the IC50 at human CK2 holoenzyme [2] (setting [5]) and at human CK2 holoenzyme [2] (setting [6]) was 1.78 µM each time.
`Cn1c2c(=O)ccc(=O)c2c2c(=O)c3ccccc3c21` [6b]: the IC50 on human CK2 holoenzyme [2] (setting [4]) and at human CK2 holoenzyme [2] (setting [3]) was 1.12 µM each time.
In the case of `CCn1c2c(=O)ccc(=O)c2c2c(=O)c3ccccc3c21` [6c], the IC50 at human CK2 holoenzyme [2] (setting [5]) was found to be 1.58 µM.
In the case of `CC(C)n1c2c(=O)ccc(=O)c2c2c(=O)c3c(Br)cccc3c21` [6d], the IC50 at human CK2 holoenzyme [2] (setting [5]) and on human CK2 holoenzyme [2] (setting [6]) was 1.35 µM each time.
As for `COc1ccc2c(=O)c3c4c(=O)ccc(=O)c4n(C(C)C)c3c2c1` [6e], the IC50 at human CK2 holoenzyme [2] (setting [4]) and at human CK2 holoenzyme [2] (setting [3]) was 4.16 µM each time.
As to `COc1cccc2c(=O)c3c4c(=O)ccc(=O)c4n(C(C)C)c3c12` [6f], the IC50 is 0.87 µM at human CK2 holoenzyme [2] (setting [5]) and 0.871 µM at human CK2 holoenzyme [2] (setting [6]).
`Cc1cc(=O)c2c3c(=O)c4ccccc4c3n(C(C)C)c2c1=O` [6g]: the “Tested pIC50” value on human CK2 holoenzyme [1] was 6.3660.
In the case of `Cc1oc2c(c1C(=O)NCCC(C)C)C(=O)c1ccccc1C2=O` [compound 00082235, N-isopentyl-2-methyl-4,9-dioxo-4,9-dihydronaphtho[2,3-b]furan-3-carboxamide], the “reduction of cell viability” value in the data set with MCF-7 cells (MCF-7, 10 µM) is given as “more than 90%”.
On to `Cc1oc2c(c1C(=O)N1CCOCC1)C(=O)c1ccccc1C2=O` [compound 01236034, 2-methyl-3(morpholine-4-carbonyl)naphto[2,3-b] furan-4,9-dione], for which, in the data set on MCF-7 cells (MCF-7, 10 µM, after 48 h), the “cell viability reduced to” value was 60%.
As to `Cc1oc2c(c1C(=O)NCCCn1ccnc1)C(=O)c1ccccc1C2=O` [compound 01893208, 1-(3-(2-methyl-4,9-dioxo-4,9-dihydronaphtho[2,3-b]furan-3-carboxamido)propyl)-1H-imidazol-3-ium], the “reduction of cell viability” value in the data set on MCF-7 cells (MCF-7, 1 µM) is reported as “around 90%”; in the data set with MCF-7 cells (MCF-7, 10 µM), “more than 90%”.
For `Cc1oc2c(c1C(=O)NCc1cccnc1)C(=O)c1ccccc1C2=O` [compound 37867960, 2-methyl-4,9-dioxo-N-(pyridin-3-ylmethyl)-4,9-dihydronaphtho[2,3-b]furan-3-carboxamide] the same measures were “around 90%” and “more than 90%”.
